In patent publication US8415469B2, “Compounds and methods for kinase modulation, and indications therefor” (Plexxikon Inc., priority 2005, dated 2013):

Key:
Type in all cases: biochemical
EphB2 = biological target: T1, EphB2 (Homo sapiens, UniProt P29323); assay: Z'-Lyte FRET kinase assay (Invitrogen), EphB2; conditions: read-out: IC50, activity toward kinase EphB2
T1 construct: purchased Invitrogen (assay run by Invitrogen)
T1 sequence (P29323 19-1055): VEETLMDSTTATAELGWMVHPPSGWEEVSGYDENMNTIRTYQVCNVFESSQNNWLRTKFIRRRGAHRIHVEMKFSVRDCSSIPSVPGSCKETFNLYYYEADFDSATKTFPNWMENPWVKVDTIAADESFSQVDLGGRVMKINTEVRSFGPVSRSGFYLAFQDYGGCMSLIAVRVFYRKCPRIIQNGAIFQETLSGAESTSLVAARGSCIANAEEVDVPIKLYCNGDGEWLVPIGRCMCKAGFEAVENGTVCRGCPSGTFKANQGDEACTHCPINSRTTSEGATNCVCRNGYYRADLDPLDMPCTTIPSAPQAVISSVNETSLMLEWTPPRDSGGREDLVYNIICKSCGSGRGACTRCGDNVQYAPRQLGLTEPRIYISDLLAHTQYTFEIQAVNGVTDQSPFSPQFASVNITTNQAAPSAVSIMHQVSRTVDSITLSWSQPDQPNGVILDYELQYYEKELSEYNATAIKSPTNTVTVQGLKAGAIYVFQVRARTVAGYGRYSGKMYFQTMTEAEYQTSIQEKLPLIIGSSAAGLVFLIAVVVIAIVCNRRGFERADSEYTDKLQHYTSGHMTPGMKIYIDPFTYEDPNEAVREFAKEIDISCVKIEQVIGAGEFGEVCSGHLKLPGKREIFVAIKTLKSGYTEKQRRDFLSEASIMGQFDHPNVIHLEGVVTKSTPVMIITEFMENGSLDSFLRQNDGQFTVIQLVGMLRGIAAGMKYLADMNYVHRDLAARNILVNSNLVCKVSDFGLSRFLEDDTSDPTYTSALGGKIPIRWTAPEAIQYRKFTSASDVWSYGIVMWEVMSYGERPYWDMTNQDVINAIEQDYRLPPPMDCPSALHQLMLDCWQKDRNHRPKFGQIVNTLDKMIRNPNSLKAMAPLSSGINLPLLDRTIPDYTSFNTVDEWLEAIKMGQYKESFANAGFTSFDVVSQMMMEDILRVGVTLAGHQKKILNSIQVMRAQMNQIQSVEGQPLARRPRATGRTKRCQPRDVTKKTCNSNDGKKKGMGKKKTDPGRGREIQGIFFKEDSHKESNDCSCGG
Excerpt: The effect of potential modulators of kinase activity can be measured in a variety of different assays known in the art. For example, direct radiometric, indirect FRET or AlphaScreen assays may be used to assess the level of phosphorylation of a substrate in the presence of test compounds in order to determine the inhibitory affect of the compound on the kinase. Invitrogen (Carlsbad, Calif.) uses a FRET based assay for Btk, EGFR, EphB2, Flt3, lrak4, Kdr, MAP2K1, MAPKAPK2, PDGFRB, PKC theta, Stk6 and Yes. For these assays, compounds of the invention were screened by Invitrogen using Z′-Lyte™ kinase assay.
Briefly, the Invitrogen kinase assay involves use of a specific peptide substrate optimized for each kinase, containing a fluorophore at each end that make up the FRET pair. The peptide sensitivity to proteolytic cleavage depends on phosphorylation of the peptide. Non-phosphorylated peptide is cleaved by a protease while peptide phosphorylated by the kinase is not cleaved. Cleavage of the peptide disrupts the FRET between the donor (coumarin) and acceptor (fluorescein) fluorophores, resulting in an increase in the ratio of donor emission to acceptor emission. The emission ratio of coumarin to fluorescein is used to assess the reaction progress. The extent of phosphorylation is determined from the emission ratio, which is low when the kinase is active (phosphorylated peptide is not cleaved, FRET pair connected) or higher for inhibited kinase (non-phosphorylated peptide is cleaved, FRET pair separated). Thus, the assay involves a kinase reaction in the presence of varying concentrations of a given compound, a development reaction with site specific protease, and detection of the fluorescent emission ratio of coumarin and fluorscein. […] Reaction conditions for each kinase are determined to provide optimal reaction times, incubation temperature, kinase and ATP concentrations. Test samples are made up in 1× kinase buffer (50 mM HEPES pH 7.5, 50 mM MgCl2, 5 mM EGTA, 0.05% BRIJ-35) and compound at desired concentration prepared in DMSO such that the final DMSO is 1%. […] Typically, assay plates are prepared to 10 μl final volume per sample, adding 2.5 μl of compound at 4× the desired concentration in 4% DMSO (serial dilution of compound provides concentration curve), 5 μl of the desired kinase mixed with Z′-LYTE™ peptide substrate (2× in 2× kinase buffer, final peptide at 2 μM), and 2.5 μl of 4×ATP solution. All kinase except for MAP2K1 were at 10 μM ATP in the kinase reaction, while MAP2K1 was at 100 μM. Samples are mixed and the kinase reaction is incubated 1 hour at room temperature, after which 5 μl of development solution is added and mixed. After incubation for another 1 hour at room temperature, 5 μl of stop reagent is added to each sample and mixed. The fluorescence signals are measured to determine the emission ratio.

B-Raf V600E = biological target: T2, B-Raf V600E (Homo sapiens, UniProt P15056, V600E); assay: AlphaScreen kinase assay, B-Raf V600E; conditions: read-out: IC50, activity toward kinase B-Raf V600E
T2 construct: P4254. pFastBacBD-CDC37 BRAF D437-K722-X, V600E; His6 with pFastBac HT leader (TEV site) (N); made in house; host or cells: Sf9 (baculovirus; chaperone CDC37 co-expressed)
T2 sequence (P15056 with tags, fused parts or gaps V600E): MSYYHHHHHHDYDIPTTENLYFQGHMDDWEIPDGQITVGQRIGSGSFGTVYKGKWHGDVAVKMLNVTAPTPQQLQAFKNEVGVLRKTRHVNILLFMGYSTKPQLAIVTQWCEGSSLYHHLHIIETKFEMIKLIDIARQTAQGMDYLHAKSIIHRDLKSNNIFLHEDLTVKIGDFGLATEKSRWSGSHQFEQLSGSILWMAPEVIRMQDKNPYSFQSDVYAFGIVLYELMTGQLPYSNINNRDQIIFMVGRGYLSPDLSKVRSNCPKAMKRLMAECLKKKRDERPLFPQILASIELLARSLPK

Ret = biological target: T3, Ret (Homo sapiens, UniProt P07949); assay: AlphaScreen kinase assay, Ret; conditions: read-out: IC50, activity toward kinase Ret
T3 construct: P1378.pET-SF BI-PTP RET H661-R1012 HIS; made in house
T3 sequence (P07949 with tags, fused parts or gaps): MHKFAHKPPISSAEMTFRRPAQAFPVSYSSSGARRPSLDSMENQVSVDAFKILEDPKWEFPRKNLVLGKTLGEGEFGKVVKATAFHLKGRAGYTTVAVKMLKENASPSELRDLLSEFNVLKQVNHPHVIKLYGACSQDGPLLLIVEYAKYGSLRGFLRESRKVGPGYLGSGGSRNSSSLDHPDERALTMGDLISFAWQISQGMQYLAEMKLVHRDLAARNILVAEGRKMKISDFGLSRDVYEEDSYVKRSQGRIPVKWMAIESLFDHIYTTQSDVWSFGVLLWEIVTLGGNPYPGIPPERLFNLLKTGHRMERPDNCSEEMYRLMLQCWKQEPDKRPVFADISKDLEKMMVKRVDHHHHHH

Stk6 = biological target: T4, Stk6 (Homo sapiens, UniProt O14965); assay: Z'-Lyte FRET kinase assay (Invitrogen), Stk6; conditions: read-out: IC50, activity toward kinase Stk6
T4 construct: purchased Invitrogen (Carlsbad, Calif.), screening service
T4 sequence (O14965 1-403): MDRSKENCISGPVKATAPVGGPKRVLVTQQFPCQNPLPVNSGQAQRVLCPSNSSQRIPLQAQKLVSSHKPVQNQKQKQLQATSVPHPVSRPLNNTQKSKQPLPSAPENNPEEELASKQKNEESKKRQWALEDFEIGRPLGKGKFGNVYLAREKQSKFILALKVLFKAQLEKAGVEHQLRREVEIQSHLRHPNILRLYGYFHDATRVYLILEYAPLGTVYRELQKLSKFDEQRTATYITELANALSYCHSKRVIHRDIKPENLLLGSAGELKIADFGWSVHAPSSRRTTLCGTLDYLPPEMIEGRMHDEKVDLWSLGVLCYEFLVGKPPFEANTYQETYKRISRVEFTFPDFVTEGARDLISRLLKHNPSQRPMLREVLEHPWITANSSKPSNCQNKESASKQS

Btk = biological target: T5, Btk (Homo sapiens, UniProt Q06187); assay: Z'-Lyte FRET kinase assay (Invitrogen), Btk; conditions: read-out: IC50, activity toward kinase Btk
T5 construct: purchased Invitrogen (assay run by Invitrogen)
T5 sequence (Q06187 whole entry): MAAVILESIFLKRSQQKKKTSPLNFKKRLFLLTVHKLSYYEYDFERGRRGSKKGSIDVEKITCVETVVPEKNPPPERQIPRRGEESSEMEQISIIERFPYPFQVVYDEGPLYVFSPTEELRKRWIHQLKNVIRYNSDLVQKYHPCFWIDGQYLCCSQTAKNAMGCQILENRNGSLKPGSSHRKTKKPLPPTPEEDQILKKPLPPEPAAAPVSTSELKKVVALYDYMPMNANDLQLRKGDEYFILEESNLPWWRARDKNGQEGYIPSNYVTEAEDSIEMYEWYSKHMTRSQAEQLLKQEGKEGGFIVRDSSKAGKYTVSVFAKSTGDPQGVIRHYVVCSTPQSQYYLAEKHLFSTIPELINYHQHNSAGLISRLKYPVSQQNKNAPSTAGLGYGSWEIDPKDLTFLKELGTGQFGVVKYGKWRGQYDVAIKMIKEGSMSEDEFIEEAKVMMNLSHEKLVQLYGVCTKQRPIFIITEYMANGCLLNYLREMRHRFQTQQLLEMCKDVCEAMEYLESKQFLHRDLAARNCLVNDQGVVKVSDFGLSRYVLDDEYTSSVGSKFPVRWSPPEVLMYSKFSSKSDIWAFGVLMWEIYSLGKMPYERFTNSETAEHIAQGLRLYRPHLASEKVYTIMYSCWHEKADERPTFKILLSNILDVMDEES

FGFR1 = biological target: T6, FGFR1 (Homo sapiens, UniProt P11362, C488A/C584S); assay: AlphaScreen kinase assay, FGFR1; conditions: read-out: IC50, activity toward kinase FGFR
T6 construct: P1351.pET N6 BI-PTP FGFR A458-E765-X C488A, C584S; made in house; host or cells: E. coli (PTP1B co-expressed)
T6 sequence (P11362 458-765 C488A/C584S): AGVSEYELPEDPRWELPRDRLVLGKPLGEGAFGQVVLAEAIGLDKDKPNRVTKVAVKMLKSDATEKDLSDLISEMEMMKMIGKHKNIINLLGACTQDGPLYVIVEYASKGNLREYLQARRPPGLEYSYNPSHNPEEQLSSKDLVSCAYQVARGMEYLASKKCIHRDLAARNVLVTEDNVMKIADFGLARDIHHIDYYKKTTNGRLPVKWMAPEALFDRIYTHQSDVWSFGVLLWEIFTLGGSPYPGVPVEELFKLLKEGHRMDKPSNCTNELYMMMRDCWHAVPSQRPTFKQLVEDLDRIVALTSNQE

Kdr = biological target: T7, Kdr (Homo sapiens, UniProt P35968); assay: Z'-Lyte FRET kinase assay (Invitrogen), Kdr; conditions: read-out: IC50, activity toward kinase Kdr
T7 construct: purchased Invitrogen (assay run by Invitrogen)
T7 sequence (P35968 20-1356): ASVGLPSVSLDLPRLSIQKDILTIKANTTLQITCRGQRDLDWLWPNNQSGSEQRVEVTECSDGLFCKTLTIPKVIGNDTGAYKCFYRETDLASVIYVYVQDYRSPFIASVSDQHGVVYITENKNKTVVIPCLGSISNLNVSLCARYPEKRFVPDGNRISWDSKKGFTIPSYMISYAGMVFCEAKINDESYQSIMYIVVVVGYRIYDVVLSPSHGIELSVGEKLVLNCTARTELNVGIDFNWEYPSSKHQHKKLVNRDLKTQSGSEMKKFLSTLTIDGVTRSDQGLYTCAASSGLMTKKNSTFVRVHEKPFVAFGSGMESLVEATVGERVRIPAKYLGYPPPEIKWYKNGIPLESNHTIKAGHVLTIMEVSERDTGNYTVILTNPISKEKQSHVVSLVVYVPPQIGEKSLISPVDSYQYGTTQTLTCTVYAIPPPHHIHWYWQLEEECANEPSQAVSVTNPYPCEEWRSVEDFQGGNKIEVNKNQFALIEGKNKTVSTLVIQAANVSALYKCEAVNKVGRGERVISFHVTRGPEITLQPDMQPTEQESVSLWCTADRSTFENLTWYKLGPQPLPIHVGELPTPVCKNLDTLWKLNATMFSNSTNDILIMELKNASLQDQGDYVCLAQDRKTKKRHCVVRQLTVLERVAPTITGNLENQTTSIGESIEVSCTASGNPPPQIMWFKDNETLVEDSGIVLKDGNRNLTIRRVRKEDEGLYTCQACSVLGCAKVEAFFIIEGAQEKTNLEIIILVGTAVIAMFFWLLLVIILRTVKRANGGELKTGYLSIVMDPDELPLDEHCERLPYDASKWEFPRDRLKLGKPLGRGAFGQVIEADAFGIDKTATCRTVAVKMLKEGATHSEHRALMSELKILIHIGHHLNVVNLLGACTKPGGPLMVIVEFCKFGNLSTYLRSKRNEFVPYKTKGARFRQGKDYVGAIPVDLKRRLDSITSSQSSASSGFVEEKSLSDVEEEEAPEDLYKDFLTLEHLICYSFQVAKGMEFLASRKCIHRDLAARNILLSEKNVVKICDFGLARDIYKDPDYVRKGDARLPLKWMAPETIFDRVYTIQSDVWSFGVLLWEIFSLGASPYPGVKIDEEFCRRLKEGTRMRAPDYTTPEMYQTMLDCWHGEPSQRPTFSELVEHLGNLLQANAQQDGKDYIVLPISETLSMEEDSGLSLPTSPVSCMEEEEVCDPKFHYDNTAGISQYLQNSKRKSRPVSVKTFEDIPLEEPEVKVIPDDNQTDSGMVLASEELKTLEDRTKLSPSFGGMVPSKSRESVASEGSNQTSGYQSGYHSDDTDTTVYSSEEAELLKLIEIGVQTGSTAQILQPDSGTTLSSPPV

Yes = biological target: T8, Yes (Homo sapiens, UniProt P07947); assay: Z'-Lyte FRET kinase assay (Invitrogen), Yes; conditions: read-out: IC50, activity toward kinase Yes
T8 construct: purchased Invitrogen (Carlsbad, Calif.), screening service
T8 sequence (P07947 whole entry): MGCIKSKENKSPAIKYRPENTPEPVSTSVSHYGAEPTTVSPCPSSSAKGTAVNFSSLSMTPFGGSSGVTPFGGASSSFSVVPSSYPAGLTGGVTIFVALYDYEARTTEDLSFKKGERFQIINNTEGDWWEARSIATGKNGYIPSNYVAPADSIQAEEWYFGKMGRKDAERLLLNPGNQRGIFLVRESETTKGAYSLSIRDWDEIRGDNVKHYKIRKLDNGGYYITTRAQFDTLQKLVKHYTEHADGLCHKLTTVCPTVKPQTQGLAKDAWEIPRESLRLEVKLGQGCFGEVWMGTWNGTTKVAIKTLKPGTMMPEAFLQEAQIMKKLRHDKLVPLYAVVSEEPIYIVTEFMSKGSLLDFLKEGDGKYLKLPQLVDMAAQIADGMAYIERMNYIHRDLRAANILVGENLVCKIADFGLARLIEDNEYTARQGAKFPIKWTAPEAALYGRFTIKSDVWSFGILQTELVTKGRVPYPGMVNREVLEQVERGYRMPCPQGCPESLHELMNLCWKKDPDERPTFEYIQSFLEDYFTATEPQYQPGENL
Outline: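 Serially diluted compound (final 1% DMSO) incubated 1 h at room temperature with kinase, 2 μM FRET peptide and 10 μM ATP in pH 7.5 HEPES buffer. Site-specific protease then cleaves unphosphorylated peptide (1 h); inhibition read as increased coumarin-to-fluorescein emission ratio.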

Kit = biological target: T9, Kit (Homo sapiens, UniProt P10721); assay: AlphaScreen kinase assay, Kit; conditions: read-out: IC50, activity toward kinase Kit
T9 construct: P1332.N6 BI PTP KIT M552-K948-X COD; His6 (N); made in house; host or cells: E. coli (PTP1B co-expressed)
T9 sequence (P10721 with tags, fused parts or gaps): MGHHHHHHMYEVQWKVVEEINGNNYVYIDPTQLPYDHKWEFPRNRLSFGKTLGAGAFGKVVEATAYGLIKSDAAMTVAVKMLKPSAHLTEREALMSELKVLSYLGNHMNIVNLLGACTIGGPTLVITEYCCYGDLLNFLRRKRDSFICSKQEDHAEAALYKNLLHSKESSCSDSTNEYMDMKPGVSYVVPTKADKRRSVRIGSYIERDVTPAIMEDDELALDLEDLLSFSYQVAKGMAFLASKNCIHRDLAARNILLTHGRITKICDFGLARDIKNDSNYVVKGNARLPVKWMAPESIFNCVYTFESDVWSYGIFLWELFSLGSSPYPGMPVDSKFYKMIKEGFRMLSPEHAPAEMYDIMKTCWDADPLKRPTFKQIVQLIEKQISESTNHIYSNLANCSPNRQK

Jnk3 = biological target: T10, Jnk3 (Homo sapiens, UniProt P53779); assay: AlphaScreen kinase assay, Jnk3; conditions: read-out: IC50, activity toward kinase Jnk3
T10 construct: purchased Upstate Biotechnology
T10 sequence (P53779 whole entry): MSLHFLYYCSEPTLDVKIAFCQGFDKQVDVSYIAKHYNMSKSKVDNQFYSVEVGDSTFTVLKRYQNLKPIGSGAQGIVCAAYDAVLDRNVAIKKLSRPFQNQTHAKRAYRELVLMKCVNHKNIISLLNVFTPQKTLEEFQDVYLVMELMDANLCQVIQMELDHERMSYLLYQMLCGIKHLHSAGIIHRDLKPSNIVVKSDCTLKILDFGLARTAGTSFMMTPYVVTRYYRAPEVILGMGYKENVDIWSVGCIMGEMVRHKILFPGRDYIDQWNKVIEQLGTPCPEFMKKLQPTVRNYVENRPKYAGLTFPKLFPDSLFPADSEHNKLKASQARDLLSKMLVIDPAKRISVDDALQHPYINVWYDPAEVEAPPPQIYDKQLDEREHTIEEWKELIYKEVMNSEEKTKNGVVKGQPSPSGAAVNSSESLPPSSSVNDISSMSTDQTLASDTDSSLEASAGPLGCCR

B-Raf = biological target: T11, B-Raf (Homo sapiens, UniProt P15056); assay: AlphaScreen kinase assay, B-Raf; conditions: read-out: IC50, activity toward kinase B-Raf
T11 construct: purchased Upstate Biotechnology
T11 sequence (P15056 whole entry): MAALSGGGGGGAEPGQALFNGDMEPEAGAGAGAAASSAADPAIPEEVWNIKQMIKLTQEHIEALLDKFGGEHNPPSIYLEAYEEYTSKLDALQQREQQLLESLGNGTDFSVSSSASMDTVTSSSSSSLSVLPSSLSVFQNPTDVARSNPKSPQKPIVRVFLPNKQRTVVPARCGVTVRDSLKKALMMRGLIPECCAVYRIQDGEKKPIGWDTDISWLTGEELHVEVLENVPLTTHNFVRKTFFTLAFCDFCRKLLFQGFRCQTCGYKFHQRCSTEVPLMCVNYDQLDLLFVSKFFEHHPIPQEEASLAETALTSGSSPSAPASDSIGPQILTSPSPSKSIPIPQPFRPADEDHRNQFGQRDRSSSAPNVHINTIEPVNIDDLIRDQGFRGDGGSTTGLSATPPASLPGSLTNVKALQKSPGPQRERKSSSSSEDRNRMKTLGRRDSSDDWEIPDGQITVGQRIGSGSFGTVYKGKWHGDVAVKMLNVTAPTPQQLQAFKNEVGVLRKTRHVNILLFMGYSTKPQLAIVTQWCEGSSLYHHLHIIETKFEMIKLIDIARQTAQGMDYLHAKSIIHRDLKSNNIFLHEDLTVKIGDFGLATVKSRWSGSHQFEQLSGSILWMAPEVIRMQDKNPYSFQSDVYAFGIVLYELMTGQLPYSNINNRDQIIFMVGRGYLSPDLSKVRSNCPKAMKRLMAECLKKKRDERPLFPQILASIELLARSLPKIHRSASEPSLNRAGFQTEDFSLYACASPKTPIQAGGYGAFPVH

Abl = biological target: T12, Abl (Homo sapiens, UniProt P00519); assay: AlphaScreen kinase assay, Abl; conditions: read-out: activity toward kinase Abl, IC50
T12 construct: P1121. pET-SPEC BI-PTP Abl G227-V515-X; His6 (N); made in house; host or cells: E. coli (PTP1B co-expressed)
T12 sequence (P00519 with tags, fused parts or gaps): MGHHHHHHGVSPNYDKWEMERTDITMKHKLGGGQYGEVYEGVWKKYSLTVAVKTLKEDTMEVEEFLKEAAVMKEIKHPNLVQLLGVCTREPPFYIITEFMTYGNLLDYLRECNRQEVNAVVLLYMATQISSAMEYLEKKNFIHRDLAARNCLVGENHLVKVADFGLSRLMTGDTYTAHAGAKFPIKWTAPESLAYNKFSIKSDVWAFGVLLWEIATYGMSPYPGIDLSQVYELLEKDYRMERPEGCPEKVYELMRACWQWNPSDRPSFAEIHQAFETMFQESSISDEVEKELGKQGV
Outline: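 Emission from acceptor beads reports phosphorylated biotin-peptide bridging antibody-coated acceptor and streptavidin donor beads; loss of signal reflects kinase inhibition. Eight-point, threefold dilution series prepared from 20 mM DMSO stocks.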

Fms = biological target: T13, Fms (Homo sapiens, UniProt P07333); assay: AlphaScreen kinase assay, Fms; conditions: read-out: IC50, activity toward kinase Fms
T13 construct: purchased Upstate Biotechnology

Row | Compound | IC50 (EphB2) | IC50 (B-Raf V600E) | IC50 (Ret) | IC50 (Stk6) | IC50 (Btk) | IC50 (FGFR1) | IC50 (Kdr) | IC50 (Yes) | IC50 (Kit) | IC50 (Jnk3) | IC50 (B-Raf) | IC50 (Abl) | IC50 (Fms)
1 | O=C(c1cccc(Cl)c1Cl)c1c[nH]c2nccc(-c3cccnc3)c12 [Compound P-0043] | ≤ 10 µM | ≤ 10 µM | ≤ 10 µM | ≤ 10 µM | ≤ 10 µM | ≤ 10 µM | ≤ 10 µM | ≤ 10 µM | – | – | – | – | –
2 | CCc1cnc2[nH]cc(C(=O)c3cccc(O)c3)c2c1 [Compound P-0059] | ≤ 10 µM | ≤ 10 µM | ≤ 10 µM | – | ≤ 10 µM | ≤ 10 µM | ≤ 10 µM | ≤ 10 µM | ≤ 10 µM | ≤ 10 µM | ≤ 10 µM | – | –
3 | O=C(c1ccccc1F)c1c[nH]c2nccc(-c3cccnc3)c12 [Compound P-0062] | ≤ 10 µM | ≤ 10 µM | – | – | – | – | – | ≤ 10 µM | – | – | – | – | –
4 | O=C(c1cccc(O)c1)c1c[nH]c2ncc(-c3cc(F)cc(F)c3)cc12 [Compound P-0074] | ≤ 10 µM | ≤ 10 µM | – | – | ≤ 10 µM | – | ≤ 10 µM | ≤ 10 µM | – | – | – | ≤ 10 µM | –
5 | COc1ccc(-c2ccnc3[nH]cc(C(=O)c4cccc(Cl)c4Cl)c23)cn1 [Compound P-0107] | ≤ 10 µM | ≤ 10 µM | ≤ 10 µM | – | ≤ 10 µM | – | ≤ 10 µM | ≤ 10 µM | – | – | – | – | –
6 | Brc1cnc2[nH]cc(Sc3ccccc3)c2c1 [Compound P-0125] | ≤ 10 µM | – | – | – | ≤ 10 µM | – | ≤ 10 µM | ≤ 10 µM | – | – | – | – | –

Next, values leading:

Row | IC50 (EphB2) | IC50 (B-Raf V600E) | IC50 (Ret) | IC50 (Stk6) | IC50 (Btk) | IC50 (FGFR1) | IC50 (Kdr) | IC50 (Yes) | IC50 (Kit) | IC50 (Jnk3) | IC50 (B-Raf) | IC50 (Abl) | IC50 (Fms) | Compound
7 | ≤ 10 µM | ≤ 10 µM | – | – | – | – | ≤ 10 µM | ≤ 10 µM | – | – | ≤ 10 µM | – | – | COC(c1c(F)ccc(O)c1F)c1c[nH]c2ncc(Br)cc12 (centres unmarked) [Compound P-0126, 3-[(5-Bromo-1H-pyrrolo[2,3-b]pyridin-3-yl)-methoxy-methyl]-2,4-difluoro-phenol]
8 | ≤ 10 µM | ≤ 10 µM | ≤ 10 µM | – | ≤ 10 µM | – | ≤ 10 µM | ≤ 10 µM | – | – | – | – | – | NC(=O)c1cccc(-c2ccnc3[nH]cc(C(=O)c4cccc(Cl)c4Cl)c23)c1 [Compound P-0139]
9 | ≤ 10 µM | – | – | – | ≤ 10 µM | – | ≤ 10 µM | ≤ 10 µM | – | – | – | – | ≤ 10 µM | COc1cccc(Sc2c[nH]c3ncc(Br)cc23)c1 [Compound P-0145]
10 | ≤ 10 µM | ≤ 10 µM | ≤ 10 µM | – | – | – | – | – | – | – | – | – | – | CC(=O)Nc1cccc(-c2ccnc3[nH]cc(C(=O)c4cccc(Cl)c4Cl)c23)c1 [Compound P-0186]
